ChEMBL document CHEMBL1139355, “Selectively targeting T- and B-cell lymphomas: a benzothiazole antagonist of alpha4beta1 integrin” (J Med Chem, 2009)

Target: Integrin alpha-4/beta-1 (Homo sapiens, UniProt P05556+P13612)
Assay: Inhibition of human integrin alpha-4-beta-1-mediated MOLT4 cell adhesion to biotin-conjugated CS-1 peptide
Format: cell-based, MOLT-4

Sequence of Integrin alpha-4/beta-1 (P05556 whole entry): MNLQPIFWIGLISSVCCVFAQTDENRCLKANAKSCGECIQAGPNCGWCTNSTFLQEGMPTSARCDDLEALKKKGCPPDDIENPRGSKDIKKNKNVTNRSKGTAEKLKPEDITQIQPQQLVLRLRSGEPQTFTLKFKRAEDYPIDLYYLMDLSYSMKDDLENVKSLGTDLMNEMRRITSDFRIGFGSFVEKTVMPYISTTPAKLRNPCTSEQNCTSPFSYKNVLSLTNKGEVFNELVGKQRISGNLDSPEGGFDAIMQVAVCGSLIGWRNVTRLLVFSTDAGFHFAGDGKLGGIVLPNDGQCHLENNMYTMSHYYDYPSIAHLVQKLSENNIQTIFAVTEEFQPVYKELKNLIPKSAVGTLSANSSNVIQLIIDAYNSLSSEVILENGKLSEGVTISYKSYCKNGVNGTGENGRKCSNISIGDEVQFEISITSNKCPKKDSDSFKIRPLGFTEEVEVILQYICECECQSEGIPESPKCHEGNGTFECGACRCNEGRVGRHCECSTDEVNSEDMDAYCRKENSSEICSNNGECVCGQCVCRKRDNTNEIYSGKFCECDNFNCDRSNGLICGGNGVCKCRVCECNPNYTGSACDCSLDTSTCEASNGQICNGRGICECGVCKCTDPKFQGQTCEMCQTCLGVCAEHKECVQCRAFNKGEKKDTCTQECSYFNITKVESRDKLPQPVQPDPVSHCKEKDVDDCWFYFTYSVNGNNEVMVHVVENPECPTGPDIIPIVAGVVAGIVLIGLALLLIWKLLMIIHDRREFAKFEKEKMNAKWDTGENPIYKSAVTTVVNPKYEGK
Sequence of Integrin alpha-4/beta-1 (P13612 whole entry): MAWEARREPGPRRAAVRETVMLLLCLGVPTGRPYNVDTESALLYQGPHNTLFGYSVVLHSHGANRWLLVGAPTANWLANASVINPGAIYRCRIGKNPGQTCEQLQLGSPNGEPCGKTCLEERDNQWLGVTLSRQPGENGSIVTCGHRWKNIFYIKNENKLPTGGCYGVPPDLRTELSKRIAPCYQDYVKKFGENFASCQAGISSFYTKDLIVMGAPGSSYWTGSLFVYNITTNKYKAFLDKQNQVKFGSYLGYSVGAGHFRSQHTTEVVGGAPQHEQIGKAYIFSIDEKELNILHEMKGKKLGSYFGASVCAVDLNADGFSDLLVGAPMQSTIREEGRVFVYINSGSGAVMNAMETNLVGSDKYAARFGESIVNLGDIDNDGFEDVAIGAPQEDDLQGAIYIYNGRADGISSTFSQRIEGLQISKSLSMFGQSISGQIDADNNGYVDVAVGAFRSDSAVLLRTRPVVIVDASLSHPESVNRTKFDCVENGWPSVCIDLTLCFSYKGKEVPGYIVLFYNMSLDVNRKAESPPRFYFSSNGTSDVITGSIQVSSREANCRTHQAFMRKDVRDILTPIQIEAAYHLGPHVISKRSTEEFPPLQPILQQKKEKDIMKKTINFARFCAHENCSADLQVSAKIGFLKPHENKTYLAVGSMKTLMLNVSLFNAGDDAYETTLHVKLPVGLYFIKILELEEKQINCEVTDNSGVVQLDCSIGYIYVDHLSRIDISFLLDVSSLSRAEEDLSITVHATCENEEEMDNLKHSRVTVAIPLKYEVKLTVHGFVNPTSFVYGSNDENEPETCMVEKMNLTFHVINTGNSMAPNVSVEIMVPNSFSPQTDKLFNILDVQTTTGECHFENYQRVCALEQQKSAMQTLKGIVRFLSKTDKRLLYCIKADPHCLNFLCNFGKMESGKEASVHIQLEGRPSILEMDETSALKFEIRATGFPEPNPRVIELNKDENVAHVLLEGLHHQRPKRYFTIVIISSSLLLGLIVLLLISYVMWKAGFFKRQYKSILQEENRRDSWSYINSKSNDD

IC50 [nM]	Structure (SMILES)
0.305	NC(=O)C1(NC(=O)[C@H](CCCC(=O)O)NC(=O)[C@H](CCCCNC(=O)/C=C/c2cccnc2)NC(=O)Cc2ccc(Nc3nc4ccccc4[nH]3)cc2)CCCCC1
378	NC(=O)C1(NC(=O)[C@@H](CCCC(=O)O)NC(=O)[C@@H](CCCCNC(=O)/C=C/c2cccnc2)NC(=O)CCc2ccc(Nc3nc4cc(Br)ccc4[nH]3)cc2)CCCCC1
346	NC(=O)C1(NC(=O)[C@@H](CCCC(=O)O)NC(=O)[C@@H](CCCCNC(=O)/C=C/c2cccnc2)NC(=O)c2ccc(Nc3nc4ccccc4s3)cc2)CCCCC1
0.0525	NC(=O)C1(NC(=O)[C@@H](CCCC(=O)O)NC(=O)[C@@H](CCCCNC(=O)/C=C/c2cccnc2)NC(=O)Cc2ccc(Nc3nc4ccccc4s3)cc2)CCCCC1
